Data reported in patent EP1157002B1, “1,2,3,4-TETRAHYDRO-1-NAPHT[…] USEFUL IN THERAPY” (Pfizer Limited, priority 1999, dated 2000).
Structures can show the parent of a compound that is named as a salt. Where two headings read alike, the source gives them in different places.

Biological target: T1, human serotonin transporter (hSERT) (Homo sapiens, UniProt P31645)
T1 construct: expressed in transfected cells; host or cells: HEK-293 (human embryonic kidney cells), stably transfected
Assay: Test A: uptake of 3H-serotonin into human embryonic kidney cells (HEK-293) expressing the human serotonin transporter
Type: cell-based
Procedure: Uptake of ^3H-biogenic amines into human embryonic kidney cells expressing the human serotonin (5-HT), noradrenalin or dopamine transporter
Human embryonic kidney cells (HEK-293) stably transfected with either the human serotonin transporter (hSERT), noradrenalin transporter (hNET) or dopamine transporter (hDAT) were cultured under standard cell culture techniques (cells were grown at 37°C and 5% CO2 in DMEM-culture media (supplemented with 10% dialysed foetal calf serum (FCS), 2mM 1-glutamine and 250µg/ml geneticin)). Cells were harvested for the assay to yield a cell suspension of 750,000 cells/ml.
Assays were carried out in 96-well filter bottom plates. Cells (7500 cells/assay well) were pre-incubated in standard assay buffer containing either test compound, standard inhibitor or compound vehicle (1% DMSO) for 5 minutes. Reactions were started by addition of either ^3H-Serotonin, ^3H-Noradrenaline or ^3H-Dopamine substrates. All reactions were carried out at room temperature in a shaking incubator. Incubation times were 5 minutes for the hSERT and hDAT assays and 15 minutes for the hNET assay. Reactions were terminated by removal of the reaction mixture using a vacuum manifold followed by rapid washing with ice cold assay buffer. The quantity of ^3H-substrate incorporated into the cells was then quantified.
Assay plates were dried in a microwave oven, scintillation fluid added, and radioactivity measured. Potency of test compounds was quantified as IC50 values (concentration of test compound required to inhibit the specific uptake of radiolabelled substrate into the cells by 50%).
Standard Assay Buffer Composition: • Trizma hydrochloride (26mM) • NaCl (124mM) • KCl (4.5mM) • KH2PO4 (1.2mM) • MgCl2.6H2O (1.3mM) • Ascorbic acid (1.136mM) • Glucose (5.55mM) • pH 7.40 • CaCl2 (2.8mM) • Pargyline (100µM)
Note: The pH of the buffer was adjusted to 7.40 with 1M NaOH before addition of CaCl2 and pargyline.

[1] = inhibition of the up-take of serotonin by human serotonin transporters, HEK-293 hSERT cells, 3H-5HT (50nM), incubation 5 minutes, room temperature, read-out: IC50 value

T1 sequence (P31645 whole entry): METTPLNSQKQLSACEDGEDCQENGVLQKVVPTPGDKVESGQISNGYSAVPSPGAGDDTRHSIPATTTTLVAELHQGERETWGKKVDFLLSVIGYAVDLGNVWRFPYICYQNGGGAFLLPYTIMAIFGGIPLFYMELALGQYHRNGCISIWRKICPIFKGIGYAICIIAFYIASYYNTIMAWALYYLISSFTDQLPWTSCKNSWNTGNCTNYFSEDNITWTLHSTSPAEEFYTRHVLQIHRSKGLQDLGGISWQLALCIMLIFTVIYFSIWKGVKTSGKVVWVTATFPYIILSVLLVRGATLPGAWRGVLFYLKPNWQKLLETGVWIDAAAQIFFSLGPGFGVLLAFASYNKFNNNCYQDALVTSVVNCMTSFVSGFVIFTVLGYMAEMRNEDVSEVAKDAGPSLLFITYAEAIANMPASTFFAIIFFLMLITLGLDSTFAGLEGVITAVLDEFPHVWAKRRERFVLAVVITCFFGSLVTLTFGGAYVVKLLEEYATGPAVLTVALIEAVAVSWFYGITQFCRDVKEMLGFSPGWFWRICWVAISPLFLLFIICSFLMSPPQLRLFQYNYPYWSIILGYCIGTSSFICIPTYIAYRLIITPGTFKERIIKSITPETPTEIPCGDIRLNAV

Structure (SMILES) | IC50 [1] | IC50
CN[C@H]1CC[C@@H](c2ccc(Cl)c(Cl)c2)c2ccc(-c3ncnn3C)cc21 [Example 56, Cis-(1S)-N-methyl-7-(3-(N(2)methyl-1,2,4-triazolyl)-4-(3,4-dichlorophenyl)-1,2,3,4-tetrahydro-1-naphthalenamine hydrochloride] | ≤ 100 nM | 
CN[C@H]1CC[C@@H](c2ccc(Cl)c(Cl)c2)c2ccc(CS(C)(=O)=O)cc21 [Example 74, Cis-(1S)-N-methyl-7-((methylsulphonyl)methyl)-4-(3,4-dichlorophenyl)-1,2,3,4-tetrahydro-1-naphthalenamine] |  | ≤ 100 nM
CN[C@H]1CC[C@@H](c2ccc(Cl)c(Cl)c2)c2ccc(CNC(N)=O)cc21 [Example 37, Cis-(1S)-N-methyl-7-((N-aminocarboxy)aminomethyl)-4-(3,4-dichlorophenyl)-1,2,3,4-tetrahydro-1-naphthalenamine hydrochloride] | ≤ 100 nM | 
CN[C@H]1CC[C@@H](c2ccc(Cl)c(Cl)c2)c2ccc(-c3ncn[nH]3)cc21 [Example 55, Cis-(1S)-N-methyl-7-(3-(1,2,4-triazolyl))-4-(3,4-dichlorophenyl)-1,2,3,4-tetrahydro-1-naphthalenamine hydrochloride] | ≤ 100 nM | 
